Laboratory results published in patent publication US20240400546A1, “COMPOUNDS AND USES THEREOF” (JANSSEN PHARMACEUTICA NV, priority 2016, published 2024).
Several values for one entry are separate records, joined by “and”; a condition that tells them apart may be missing. Equal entries are not always repeated.

Key:
Format in all cases: cell-based
SCD5 = target: T1, SCD5 (Homo sapiens, UniProt Q86SK9); assay: Growth inhibition of humanized yeast expressing SCD5 as sole desaturase
T1 construct: host or cells: S. cerevisiae ole1Δ strain, plasmid pRS316 with TDH3 promoter and CYC1 terminator
T1 sequence (Q86SK9 1-330): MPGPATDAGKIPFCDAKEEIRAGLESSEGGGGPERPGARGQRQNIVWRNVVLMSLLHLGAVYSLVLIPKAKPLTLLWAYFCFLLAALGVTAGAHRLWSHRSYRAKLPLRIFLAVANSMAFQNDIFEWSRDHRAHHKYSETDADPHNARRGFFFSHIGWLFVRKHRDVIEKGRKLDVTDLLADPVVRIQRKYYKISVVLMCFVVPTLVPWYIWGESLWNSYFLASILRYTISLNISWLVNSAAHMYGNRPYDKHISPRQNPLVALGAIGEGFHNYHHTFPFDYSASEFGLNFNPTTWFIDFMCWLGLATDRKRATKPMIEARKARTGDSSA
Method: (§1) Strain ole1Δ (yeast ole1 deletion mutant) was constructed by deleting OLE1 with NAT-MX6 in BY4741, amplifying the deletion cassette from the genomic DNA of the resulting strain with primers flanking the ORF by 1000 bp upstream and downstream, transforming the resulting deletion cassette into W303 pdr1Δ pdr3Δ, and plating transformants on YPD media containing G418 (200 μg/mL) and nourseothricin (100 μg/mL) with 0.01% TWEEN®-20 and 0.5 mM oleic and palmitoleic acids.
(§2) The coding sequence of yeast OLE1 was also cloned into this plasmid). These clones were then transformed into the ole1Δ strain and plated on CSM-Ura media (CSM lacking uracil) with 2% glucose (w/v) and independent colonies were isolated and amplified.
(§3) All compound profiling experiments were performed using the same basic protocol. Different genetic backgrounds (e.g., gene deletions) or conditions (e.g., addition of oleic and palmitoleic acid) were replaced as indicated below.
(§4) Yeast were cultured using standard techniques in complete synthetic media (CSM) and yeast nitrogen base supplemented with 2% (w/v) carbon source (glucose, raffinose, or galactose) to regulate the expression of the toxic disease protein. An initial starter culture was inoculated in 3 mL CSM-Glucose media and incubated overnight in a 30° C. shaker incubator (225 rpm). Saturated morning cultures were then diluted 1:20 in fresh CSM-Raffinose media and grown for 6 h to an OD600 (optical density) of ˜0.4-0.8 at 30° C. with shaking.
(§5) Compound administration was performed in two separate steps. First, 15 μL of CSM-Galactose (induces expression of toxic protein) was dispensed into clear 384 well assay plates using a MULTIDROP™ Combi reagent dispenser. […] The cultures described above were then diluted to a 2× concentration (0.03 and 0.08 for alpha-synuclein and ApoE, final OD600 of 0.015 and 0.04) in CSM-Galactose. For wild-type and Ole1/SCD1/SCD5 plasmid-containing strains, the 2× cell density was 0.02. […] For 96-well assays (FIGS. 1A and 1B), compound dilutions in DMSO were generated in 96 well plates and 1 μL was manually pipetted into 96 well clear bottom assay plates.
(§6) For experiments using a plasmid-borne copy of Ole1, SCD1, or SCD5 (FIGS. 3B, 6, and 7), media lacking uracil (SX-Ura, where X is glucose, raffinose, or galactose), was used for all steps of the compound profiling protocol to ensure its maintenance throughout the assay.
(§7) After yeast delivery, assay plates were incubated under humidified conditions at 30° C. for 24 to 40 h. ApoE4 rescue experiments were stopped at 24 h, aSyn experiments at 40 h, Ole1 at 24 h, and SCD1/SCD5 at 40 h. The growth of yeast was monitored by reading the OD600 of each well using a microplate reader (Perkin Elmer EnVision™).

SCD1 = target: T2, SCD1 (Homo sapiens, UniProt O00767); assay: Growth inhibition of humanized yeast expressing SCD1 as sole desaturase
T2 construct: host or cells: S. cerevisiae ole1Δ strain, plasmid pRS316 with TDH3 promoter and CYC1 terminator
T2 sequence (O00767 1-359): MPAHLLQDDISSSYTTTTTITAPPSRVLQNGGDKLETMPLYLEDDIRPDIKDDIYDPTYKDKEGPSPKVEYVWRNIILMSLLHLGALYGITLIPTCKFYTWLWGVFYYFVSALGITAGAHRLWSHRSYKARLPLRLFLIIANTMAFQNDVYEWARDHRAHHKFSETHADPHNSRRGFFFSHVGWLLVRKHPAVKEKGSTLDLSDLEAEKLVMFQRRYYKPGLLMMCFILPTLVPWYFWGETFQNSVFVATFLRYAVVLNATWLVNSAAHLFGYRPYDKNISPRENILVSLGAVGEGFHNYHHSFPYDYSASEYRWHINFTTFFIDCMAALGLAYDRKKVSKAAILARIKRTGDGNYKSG
Method: as §1, §2, §3, §4, §5, §6, §7

Ole1 = target: T3, Ole1 (Saccharomyces cerevisiae, UniProt P21147); assay: Growth inhibition of yeast expressing Ole1 as sole desaturase; conditions: FIG. 6
T3 construct: expressed in transfected cells; host or cells: S. cerevisiae ole1Δ strain (W303 pdr1Δ pdr3Δ background), plasmid pRS316 with TDH3 promoter and CYC1 terminator
T3 sequence (P21147 1-510): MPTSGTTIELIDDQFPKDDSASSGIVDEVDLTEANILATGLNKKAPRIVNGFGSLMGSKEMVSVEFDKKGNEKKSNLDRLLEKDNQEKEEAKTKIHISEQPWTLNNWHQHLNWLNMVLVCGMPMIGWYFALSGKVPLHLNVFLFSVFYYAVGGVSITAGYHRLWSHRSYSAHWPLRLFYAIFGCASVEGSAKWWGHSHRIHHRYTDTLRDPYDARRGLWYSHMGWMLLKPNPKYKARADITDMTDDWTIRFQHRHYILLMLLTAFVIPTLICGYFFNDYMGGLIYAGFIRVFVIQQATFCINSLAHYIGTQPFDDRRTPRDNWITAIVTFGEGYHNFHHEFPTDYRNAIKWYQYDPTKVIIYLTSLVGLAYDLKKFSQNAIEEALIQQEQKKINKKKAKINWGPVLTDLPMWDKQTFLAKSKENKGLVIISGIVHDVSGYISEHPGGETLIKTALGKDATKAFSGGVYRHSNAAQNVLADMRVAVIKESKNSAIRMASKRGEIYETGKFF
Method: as §1, §2, §3, §4, §5, §6, §7

[1] = humanized yeast expressing human SCD5
[2] = humanized yeast expressing human SCD1
[3] = growth of humanized yeast strain expressing human SCD1
[4] = growth of humanized yeast strain expressing human SCD5

Row | Compound | IC50 (SCD1; [2]) [µM] | other results
1 | O=C([C@H]1CC(=O)N(c2ccccc2)C1)N1CCC(c2nc(N3CC4(COC4)C3)no2)CC1 [Compound 316] |  | IC50 (SCD5; [1]): ≥ 45 µM
2 | Cc1nn(C)c2cc(-c3nc(C4CCN(C(=O)OC(C)(C)C)CC4)no3)ccc12 [Compound 319] |  | SCD5 % Max Inhibition (SCD5; humanized yeast expressing SCD5): 4.96% and 10.94%
3 | O=C(C1CC(=O)N(c2cccc(Cl)c2)C1)N1CCC(c2nc(Cl)no2)CC1 (centres unmarked) [Compound 348] |  | IC50 (SCD5; [1]): ≥ 45 µM
4 | N#Cc1cccc(N2CC(C(=O)N3CCC(c4nc(Cl)no4)CC3)CC2=O)c1 (centres unmarked) [Compound 350] |  | IC50 (SCD5; [1]): ≥ 45 µM
5 | O=C(c1ccccc1)N1CCC(c2nc(Cl)no2)CC1 [Compound 351] |  | IC50 (SCD5; [1]): ≥ 45 µM
6 | CC(C)n1ncc2ccc(-c3noc(N4CCN(C(=O)OC5CC5)CC4)n3)cc21 [Compound 496] |  | IC50 (SCD5; [1]): 0.445 µM
7 | CC(C)n1ncc2ccc(-c3noc(C4CCNCC4)n3)cc21 [Compound 500] | > 45 | IC50 (SCD5; [1]): > 45 µM
8 | CC(C)n1ncc2ccc(N3CC4(CCN(C(=O)OC(C)(C)C)CC4)C3)cc21 [Compound 511] | > 45 | IC50 (SCD5; [1]): 3.39 µM
9 | CC1=NN(C)C2C=C(c3noc([C@H]4CC[C@H](O)CC4)n3)C=CC12 (some centres unmarked) [Compound 526] | > 45 | IC50 (SCD5; [1]): > 45 µM
10 | Cc1noc(N2CCC(c3nc(-c4ccc5c(C)nn(C)c5c4)no3)CC2)n1 [Compound 543] | > 45 | IC50 (SCD5; [1]): ≥ 45 µM
11 | CC(C)n1ncc2ccc(-c3nc(C4CCN(C(=O)c5cccc(F)c5)CC4)no3)cc21 [Compound 547] |  | IC50 (SCD5; [1]): 44.3 µM
12 | Cc1nn(C)c2cc(-c3noc(C4CCN(C(=O)CNC(=O)c5ccc(Cl)cc5)CC4(F)F)n3)ccc12 (centres unmarked) [Compound 553] | 5.71 | IC50 (SCD5; [1]): 0.885 µM
13 | CC(C)N1C(=O)CCc2ccc(-c3noc(C4CCN(C(=O)OC(C)(C)C)CC4)n3)cc21 [Compound 572] | > 45 | 
14 | CC(C)n1ncc2ccc(-c3noc(C4CCN(C(=O)c5cscn5)CC4)n3)cc21 [Compound 573] | > 45 | 
15 | CC(C)n1ncc2ccc(-c3noc(C4CCN(C(=O)c5cccs5)CC4)n3)cc21 [Compound 574] | > 45 | 
16 | CC(C)n1ncc2ccc(-c3noc(C4CCN(C(=O)c5ccsc5Cl)CC4)n3)cc21 [Compound 575] | > 45 | 
17 | CC1(OC(=O)N2CCC(c3nc(-c4ccc5cnn(C6COC6)c5c4)no3)CC2)CC1 [Compound 576] | > 45 | 
18 | Cc1nn(C)c2cc(-c3noc([C@@H]4CCN(C(=O)CNC(=O)c5ccccc5)CC4(F)F)n3)ccc12 [Compound 577] | > 45 | 
19 | Cc1nn(C)c2cc(-c3noc(C4CCN(c5nc(C(C)C)no5)CC4)n3)ccc12 [Compound 581] | > 45 | 
20 | CC(C)n1ncc2ccc(-c3nc(N4CCN(C(=O)c5ccccc5)CC4)no3)cc21 [Compound 582] | > 45 | 
21 | CC(C)n1ncc2ccc(-c3noc(C4CCN(C(=O)c5ccc(Cl)cn5)CC4)n3)cc21 [Compound 586] | > 45 | 
22 | CC(C)n1ncc2ccc(-c3noc(C4CCN(C(=O)c5ncccc5Cl)CC4)n3)cc21 [Compound 587] | > 45 | 

Row | Compound | IC50 (SCD1; [2]) [µM] | other results
23 | CC(C)n1ncc2ccc(-c3noc(C4CCN(C(=O)c5ccsn5)CC4)n3)cc21 [Compound 588] | > 45 | 
24 | CC(C)n1ncc2ccc(-c3noc(C4CCN(C(=O)c5ncc(Cl)s5)CC4)n3)cc21 [Compound 589] | > 45 | 
25 | Cc1noc2cc(-c3noc(C4CCN(C(=O)OC5(C)CC5)CC4)n3)ccc12 [Compound 590] | > 45 | 
26 | Cc1noc2cc(-c3noc(C4CCN(C(=O)CC5(C)CC5)CC4)n3)ccc12 [Compound 591] | > 45 | 
27 | Cc1nn(C)c2cc(-c3noc(C4CCN(C(=O)CC5COC5)CC4)n3)ccc12 [Compound 592] | > 45 | 
28 | CC(C)n1ncc2ccc(-c3noc(N4CCN(C(=O)OCC(F)(F)F)CC4)n3)cc21 [Compound 593] | > 45 | 
29 | CC(C)n1ncc2ccc(N3CC4(CCN(C(=O)OC5CC5)CC4)C3)cc21 [Compound 594] | > 45 | 
30 | COCC(=O)N1CCN(c2nc(-c3ccc4cnn(C(C)C)c4c3)no2)CC1 [Compound 595] | > 45 | 
31 | CC(C)n1ncc2ccc(-c3noc([C@H]4CC[C@H](N)CC4)n3)cc21 [Compound 596] | > 45 | 
32 | C[C@@H](O)C(=O)N1CCC(c2nc(-c3ccc4cnn(C5COC5)c4c3)no2)CC1 [Compound 597] | > 45 | 
33 | O=C(NCC(=O)N1CCC(c2nc(-c3ccc4cnn(C5COC5)c4c3)no2)CC1)c1ccccc1 [Compound 598] | > 45 | 
34 | N#Cc1cccc(N2C[C@@H](C(=O)N3CCC(c4nc(-c5ccc6cnn(C7COC7)c6c5)no4)CC3)CC2=O)c1 [Compound 599] | > 45 | 
35 | N#Cc1cccc(N2C[C@H](C(=O)N3CCC(c4nc(-c5ccc6cnn(C7COC7)c6c5)no4)CC3)CC2=O)c1 [Compound 600] | > 45 | 
36 | CC(C)n1ncc2ccc(-c3noc(C4CCN(C(=O)c5ncco5)CC4)n3)cc21 [Compound 615] |  | IC50 (SCD1; [3]): 0.848 µM; IC50 (SCD5; [4]): 1.88 µM
37 | Cc1cc(N2CCN(c3nc(-c4ccc5cnn(C(C)C)c5c4)no3)CC2)on1 [Compound 657] |  | IC50 (SCD1; [3]): > 45 µM; IC50 (SCD5; [4]): 9.11 µM
38 | CC(C)n1ncc2ccc(N3CC4(CCN(C(=O)OC(C)(C)C)CC4)C3)cc21 [Compound 663] |  | IC50 (SCD1; [3]): > 45 µM; IC50 (SCD5; [4]): 0.01 µM
39 | CC(C)(C)OC(=O)N1CCN(c2noc(-c3ccc4cnn(C5COC5)c4c3)n2)CC1 [Compound 750] |  | IC50 (SCD1; humanized yeast strain, 40 h): 3.25 µM; IC50 (SCD5; humanized yeast strain, 40 h): 0.01 µM
40 | COCC(C)(C)n1ncc2ccc(-c3noc(C4CCN(C(=O)OC(C)(C)C)CC4)n3)cc21 [Compound 788] |  | IC50 (SCD1; humanized yeast strain, 40 h): > 45 µM; IC50 (SCD5; humanized yeast strain, 40 h): 6.22 µM
41 | COC(=O)C1CCCN(c2noc(-c3ccc4cnn(C5COC5)c4c3)n2)CC1 (centres unmarked) [Compound 857] |  | IC50 (SCD1; humanized yeast strain, 40 h): > 45 µM; IC50 (SCD5; humanized yeast strain, 40 h): 26.8 µM
42 | CC(=O)N1CC(n2cc3ccc(-c4nc(C5CCN(C(=O)OC(C)(C)C)CC5)no4)cc3n2)C1 [Compound 862] |  | IC50 (SCD1; humanized yeast strain, 40 h): 33.8 µM; IC50 (SCD5; humanized yeast strain, 40 h): 0.01 µM
43 | O=C(O)Cn1nnc(-c2cc(N3CCC(Oc4cc(F)ccc4Br)CC3)no2)n1 [MK-8245, reference compound] |  | half-maximal inhibitory concentration (IC50), SCD5 humanized strain (SCD5; FIG. 6): low nanomolar; Sensitivity of yeast expressing OLE1 to known SCD1/SCD5 inhibitors (Ole1): resistant
